According to patent US4108973A, “Immunoassay for catecholamines” (Hoffmann-La Roche Inc., priority 1976, dated 1978):

Molecular target: Ab-7^123 dl-Met complex (epinephrine type catecholamine antibody)
Experiment: Antibody specificity: 50% inhibition of antibody-labelled dl-metanephrine complex (competitive binding radioimmunoassay)
Design: species or system rabbit
Conditions: amount for 50% inhibition; incubation volume 0.5 or 1.0 ml
Method: The specificity of an epinephrine type catecholamine antibody suitable for use in the practice of the present method is set forth below in Table 1:
For immunization of rabbits, 10 mg. of each of the products of Example 8 or Example 9 was dissolved in 1 ml. of phosphate buffered saline and emulsified with 1 ml. of complete Freund's adjuvant. The second inoculation was given three weeks later and consisted of 1.5 mg. immunogen in 1 ml. PBS emulsified with 1 ml. of complete Freund's adjuvant. The third injection, five weeks after the first, employed the same concentration of antigen but was in incomplete Freund's adjuvant. Immunizations were by the subcutaneous route.
A competitive binding radioimmunoassay procedure is used similar to that described in U.S. Pat. No. 3,704,282. An incubation volume of either 0.5 or 1.0 ml. is used and antibody-label complex is separated from free label by precipitation with saturated

Which “50 % INHIBITION OF Ab-7^123 dl-Met OMPLEX” value does the source give for CNCC(O)c1ccc(O)c(OC)c1 (racemic) [dl-Metanephrine] here?
Its value is 0.050 ng.

How did the “50 % INHIBITION OF Ab-7^123 dl-Met OMPLEX” value turn out when CNCC(O)c1ccc(O)cc1 (racemic) [dl-Synephrine] was run?
Its value is 0.100 ng.

For CNC[C@H](O)c1ccc(O)c(O)c1 [1-Epinephrine], which “50 % INHIBITION OF Ab-7^123 dl-Met OMPLEX” value is on record?
The value was 0.250 ng.

How did the “50 % INHIBITION OF Ab-7^123 dl-Met OMPLEX” value turn out when NC[C@H](O)c1ccc(O)c(O)c1 [1-Norepinephrine] was run?
Its value is over 500 ng.

Which “50 % INHIBITION OF Ab-7^123 dl-Met OMPLEX” value does the source give for CNC[C@H](O)c1cccc(O)c1 [1-Phenylephrine] here?
The value was 0.060 ng.

For CC(N)Cc1ccccc1 (stereo not shown) [Amphetamine], which “50 % INHIBITION OF Ab-7^123 dl-Met OMPLEX” value is on record?
Its value is over 500 ng.

With N[C@@H](Cc1ccc(O)c(O)c1)C(=O)O [DOPA] as the compound, how does the “50 % INHIBITION OF Ab-7^123 dl-Met OMPLEX” value read?
Its value is over 500 ng.

NCCc1ccc(O)c(O)c1 [Dopamine] was tested. Which “50 % INHIBITION OF Ab-7^123 dl-Met OMPLEX” value did it give?
Its value is over 500 ng.

Which “50 % INHIBITION OF Ab-7^123 dl-Met OMPLEX” value does the source give for CNC(C)C(O)c1ccccc1 (stereo not shown) [Ephedrine] here?
Its value is over 500 ng.

Which “50 % INHIBITION OF Ab-7^123 dl-Met OMPLEX” value does the source give for CNCCc1ccc(O)c(O)c1 [Epinine] here?
The value was 0.350 ng.

Which “50 % INHIBITION OF Ab-7^123 dl-Met OMPLEX” value does the source give for CC(C)NCC(O)c1ccc(O)c(O)c1 (stereo not shown) [Isoproterenol] here?
Its value is over 500 ng.

Which “50 % INHIBITION OF Ab-7^123 dl-Met OMPLEX” value does the source give for CNC(C)Cc1ccccc1 (stereo not shown) [Methamphetamine] here?
The value was over 500 ng.

NCCc1c[nH]c2ccc(O)cc12 [Sezotosin] was tested. Which “50 % INHIBITION OF Ab-7^123 dl-Met OMPLEX” value did it give?
The value was over 500 ng.
